Laboratory results taken from ChEMBL document CHEMBL1136223, “Reversed hydroxamate-bearing thermolysin inhibitors mimic a high-energy intermediate along the enzyme-catalyzed proteolytic reaction pathway” (Bioorg Med Chem Lett, 2003).

Assays:
[1] = Ratio of Km to that of Kcat against thermolysin
Thermolysin [2] = target: T1, Thermolysin (Bacillus thermoproteolyticus, UniProt P00800); assay: Inhibitory activity against thermolysin using N-[3-(2-furyl)acryloyl]-Gly-l-leucineamide (FA-Gly-l-Leu-NH2) as substrate
T1 sequence (P00800 whole entry): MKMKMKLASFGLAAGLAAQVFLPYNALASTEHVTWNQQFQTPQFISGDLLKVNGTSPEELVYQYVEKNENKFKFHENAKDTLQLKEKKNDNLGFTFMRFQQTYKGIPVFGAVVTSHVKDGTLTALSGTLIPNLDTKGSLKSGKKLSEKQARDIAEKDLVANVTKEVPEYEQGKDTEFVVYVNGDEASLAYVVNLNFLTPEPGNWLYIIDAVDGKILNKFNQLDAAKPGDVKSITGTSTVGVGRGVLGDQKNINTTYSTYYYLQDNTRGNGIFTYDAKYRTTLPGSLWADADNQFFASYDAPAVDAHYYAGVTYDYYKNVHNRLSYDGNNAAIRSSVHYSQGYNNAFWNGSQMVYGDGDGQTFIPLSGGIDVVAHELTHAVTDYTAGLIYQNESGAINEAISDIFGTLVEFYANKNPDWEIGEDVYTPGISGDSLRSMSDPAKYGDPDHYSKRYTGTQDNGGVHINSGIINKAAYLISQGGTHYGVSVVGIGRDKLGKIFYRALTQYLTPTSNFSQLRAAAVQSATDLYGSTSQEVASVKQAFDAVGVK

Thermolysin [3] = target: T1, Thermolysin; assay: Inhibitory activity against thermolysin

Row | Compound | Km/Kcat [1] [µM/s] | Ki (Thermolysin [2]) [µM] | Ki (Thermolysin [3]) [µM]
1 | CC(C)C[C@H](CN(O)C=O)C(=O)NC(=O)CN | 165 | 14.7 | 10.9
2 | CC(C)C[C@H](CN(O)C=O)C(N)=O | 196 | 52.8 | 20.6
3 | CC(C)C[C@H](CN(O)C=O)C(=O)NC(=O)[C@@H](N)Cc1ccccc1 | 20 | 1.84 | 2.4
4 | CC(C)C[C@H](CN(O)C=O)C(=O)NC(=O)[C@H](C)N | 13.6 | 2.49 | 10.6
5 | CC(C)C[C@H](CN(O)C=O)C(=O)NC(=O)[C@@H](C)N | 3200 | 383 | 16.6
